# Paper PMC6437697 (Journal of Medicinal Chemistry, 2019)
# Columns and labels:
# Test in all cases: KINOMEscan
# Type in all cases: binding
# Settings in all cases: read-out: % control activity remaining
# TXK = molecular target: T1, TXK (Homo sapiens, UniProt P42681)
# T1 construct: purchased Eurofins DiscoverX KINOMEscan
# T1 sequence (P42681 1-527): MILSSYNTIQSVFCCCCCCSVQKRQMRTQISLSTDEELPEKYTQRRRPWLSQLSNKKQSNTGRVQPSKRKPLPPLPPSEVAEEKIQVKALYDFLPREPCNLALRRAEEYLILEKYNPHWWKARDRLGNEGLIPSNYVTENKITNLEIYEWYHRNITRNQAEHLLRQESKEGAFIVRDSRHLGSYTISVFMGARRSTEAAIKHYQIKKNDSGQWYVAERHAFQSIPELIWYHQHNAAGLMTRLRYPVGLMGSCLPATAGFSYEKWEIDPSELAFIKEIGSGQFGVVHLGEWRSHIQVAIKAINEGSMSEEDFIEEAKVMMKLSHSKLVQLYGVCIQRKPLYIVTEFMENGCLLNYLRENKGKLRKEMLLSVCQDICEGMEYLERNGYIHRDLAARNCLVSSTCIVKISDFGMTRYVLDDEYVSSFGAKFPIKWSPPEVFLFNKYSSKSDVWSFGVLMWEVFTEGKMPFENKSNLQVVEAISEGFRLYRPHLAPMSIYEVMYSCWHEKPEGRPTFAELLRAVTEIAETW
# LKB1 = molecular target: T2, LKB1 (Homo sapiens, UniProt Q15831)
# T2 construct: purchased Eurofins DiscoverX KINOMEscan
# T2 sequence (Q15831 1-433): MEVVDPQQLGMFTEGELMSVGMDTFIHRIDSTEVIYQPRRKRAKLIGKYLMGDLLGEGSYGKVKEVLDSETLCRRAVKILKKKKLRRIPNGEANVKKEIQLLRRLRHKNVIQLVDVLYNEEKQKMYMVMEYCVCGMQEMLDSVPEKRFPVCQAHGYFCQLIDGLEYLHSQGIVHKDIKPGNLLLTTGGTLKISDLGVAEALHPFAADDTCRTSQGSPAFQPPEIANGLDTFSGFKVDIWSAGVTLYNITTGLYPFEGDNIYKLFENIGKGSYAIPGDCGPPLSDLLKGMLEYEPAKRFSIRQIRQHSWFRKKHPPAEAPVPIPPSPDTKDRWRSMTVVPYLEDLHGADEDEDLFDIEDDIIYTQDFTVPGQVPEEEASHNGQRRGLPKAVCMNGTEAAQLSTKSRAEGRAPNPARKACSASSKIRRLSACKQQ
# ERBB4 = molecular target: T3, ERBB4 (Homo sapiens, UniProt Q15303)
# T3 construct: purchased Eurofins DiscoverX KINOMEscan
# NEK1 = molecular target: T4, NEK1 (Homo sapiens, UniProt Q96PY6)
# T4 construct: purchased Eurofins DiscoverX KINOMEscan
# T4 sequence (Q96PY6 1-1258): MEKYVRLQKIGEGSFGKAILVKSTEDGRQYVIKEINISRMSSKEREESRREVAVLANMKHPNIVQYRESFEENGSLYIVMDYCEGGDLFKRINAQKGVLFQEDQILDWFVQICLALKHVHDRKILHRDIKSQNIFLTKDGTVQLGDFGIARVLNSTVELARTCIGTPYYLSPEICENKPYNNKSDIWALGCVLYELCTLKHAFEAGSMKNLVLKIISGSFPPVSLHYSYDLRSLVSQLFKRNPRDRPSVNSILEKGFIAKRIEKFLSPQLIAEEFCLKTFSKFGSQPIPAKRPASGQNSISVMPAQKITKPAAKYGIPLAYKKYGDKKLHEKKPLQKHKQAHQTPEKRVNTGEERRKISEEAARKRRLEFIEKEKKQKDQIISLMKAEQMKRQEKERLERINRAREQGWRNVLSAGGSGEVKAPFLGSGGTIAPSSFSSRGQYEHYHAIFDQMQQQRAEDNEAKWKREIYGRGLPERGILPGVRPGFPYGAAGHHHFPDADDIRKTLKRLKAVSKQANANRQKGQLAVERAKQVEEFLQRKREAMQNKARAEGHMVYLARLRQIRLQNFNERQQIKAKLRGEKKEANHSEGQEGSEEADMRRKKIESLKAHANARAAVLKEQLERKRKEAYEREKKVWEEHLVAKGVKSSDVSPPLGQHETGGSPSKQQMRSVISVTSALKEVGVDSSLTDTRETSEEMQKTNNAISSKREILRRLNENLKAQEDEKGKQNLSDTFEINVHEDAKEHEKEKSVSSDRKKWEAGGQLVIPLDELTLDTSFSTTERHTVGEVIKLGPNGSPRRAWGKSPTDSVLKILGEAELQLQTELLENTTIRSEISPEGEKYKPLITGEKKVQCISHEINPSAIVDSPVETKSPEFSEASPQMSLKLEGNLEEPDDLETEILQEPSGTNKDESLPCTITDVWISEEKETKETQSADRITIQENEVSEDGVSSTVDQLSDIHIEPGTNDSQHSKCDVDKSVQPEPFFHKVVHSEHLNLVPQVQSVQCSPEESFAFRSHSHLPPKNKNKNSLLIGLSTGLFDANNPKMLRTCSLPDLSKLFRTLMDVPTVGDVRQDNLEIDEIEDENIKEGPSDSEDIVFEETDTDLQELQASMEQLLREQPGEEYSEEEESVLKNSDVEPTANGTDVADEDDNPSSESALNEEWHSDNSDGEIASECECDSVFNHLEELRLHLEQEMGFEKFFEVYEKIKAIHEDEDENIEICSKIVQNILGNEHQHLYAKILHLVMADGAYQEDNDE
# [1] = molecular target: T5, RSK2(Kin.Dom.1-N-terminal) (Homo sapiens, UniProt P51812)
# T5 construct: RSK2(Kin.Dom.1-N-terminal); purchased Eurofins DiscoverX KINOMEscan
# NEK3 = molecular target: T6, NEK3 (Homo sapiens, UniProt P51956)
# T6 construct: purchased Eurofins DiscoverX KINOMEscan
# T6 sequence (P51956 1-506): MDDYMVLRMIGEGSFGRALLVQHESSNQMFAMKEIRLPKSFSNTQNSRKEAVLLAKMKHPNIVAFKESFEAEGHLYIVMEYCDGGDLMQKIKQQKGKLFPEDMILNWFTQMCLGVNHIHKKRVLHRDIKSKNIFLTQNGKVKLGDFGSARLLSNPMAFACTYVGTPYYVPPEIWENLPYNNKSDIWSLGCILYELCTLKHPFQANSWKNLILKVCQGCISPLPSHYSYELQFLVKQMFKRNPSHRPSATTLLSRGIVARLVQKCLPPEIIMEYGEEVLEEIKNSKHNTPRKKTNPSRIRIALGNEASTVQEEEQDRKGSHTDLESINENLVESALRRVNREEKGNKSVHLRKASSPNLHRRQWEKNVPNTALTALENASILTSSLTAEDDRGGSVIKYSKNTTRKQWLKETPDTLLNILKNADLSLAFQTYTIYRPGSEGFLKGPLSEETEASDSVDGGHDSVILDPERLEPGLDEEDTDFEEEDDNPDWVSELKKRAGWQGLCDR
# T3 sequence (Q15303 26-1308): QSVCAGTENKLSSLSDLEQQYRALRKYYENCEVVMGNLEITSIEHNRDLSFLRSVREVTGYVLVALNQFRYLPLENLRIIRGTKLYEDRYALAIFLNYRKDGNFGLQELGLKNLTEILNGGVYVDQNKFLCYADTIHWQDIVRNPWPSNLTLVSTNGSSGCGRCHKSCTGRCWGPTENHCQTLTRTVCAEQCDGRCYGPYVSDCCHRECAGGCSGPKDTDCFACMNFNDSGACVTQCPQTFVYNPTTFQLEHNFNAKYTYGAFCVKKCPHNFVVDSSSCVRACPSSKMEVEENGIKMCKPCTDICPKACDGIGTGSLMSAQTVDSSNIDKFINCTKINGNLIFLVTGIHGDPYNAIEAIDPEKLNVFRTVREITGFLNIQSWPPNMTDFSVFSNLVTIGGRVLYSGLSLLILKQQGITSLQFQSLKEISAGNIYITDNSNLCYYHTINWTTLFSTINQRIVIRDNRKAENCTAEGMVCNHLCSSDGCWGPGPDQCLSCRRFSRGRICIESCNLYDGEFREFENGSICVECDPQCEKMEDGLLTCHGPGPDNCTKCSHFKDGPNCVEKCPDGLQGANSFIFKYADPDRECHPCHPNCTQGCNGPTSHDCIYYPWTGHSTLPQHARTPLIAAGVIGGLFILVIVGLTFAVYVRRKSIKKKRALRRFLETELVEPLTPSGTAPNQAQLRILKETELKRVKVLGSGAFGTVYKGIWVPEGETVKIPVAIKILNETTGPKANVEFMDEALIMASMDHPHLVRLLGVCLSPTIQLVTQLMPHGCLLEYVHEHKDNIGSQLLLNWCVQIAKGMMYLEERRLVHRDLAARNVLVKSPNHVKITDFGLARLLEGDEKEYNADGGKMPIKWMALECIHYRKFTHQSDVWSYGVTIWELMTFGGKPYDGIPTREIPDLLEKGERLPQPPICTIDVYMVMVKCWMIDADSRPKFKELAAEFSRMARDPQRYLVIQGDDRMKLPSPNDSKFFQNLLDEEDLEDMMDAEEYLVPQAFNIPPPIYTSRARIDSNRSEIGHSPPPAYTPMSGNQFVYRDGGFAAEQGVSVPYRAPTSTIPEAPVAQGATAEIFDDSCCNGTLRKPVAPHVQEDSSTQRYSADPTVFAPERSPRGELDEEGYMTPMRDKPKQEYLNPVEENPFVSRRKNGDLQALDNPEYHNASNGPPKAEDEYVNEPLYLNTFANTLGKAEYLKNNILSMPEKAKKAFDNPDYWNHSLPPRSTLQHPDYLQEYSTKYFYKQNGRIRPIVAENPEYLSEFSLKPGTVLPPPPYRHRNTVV
# T5 sequence (P51812 68-327 limits assumed): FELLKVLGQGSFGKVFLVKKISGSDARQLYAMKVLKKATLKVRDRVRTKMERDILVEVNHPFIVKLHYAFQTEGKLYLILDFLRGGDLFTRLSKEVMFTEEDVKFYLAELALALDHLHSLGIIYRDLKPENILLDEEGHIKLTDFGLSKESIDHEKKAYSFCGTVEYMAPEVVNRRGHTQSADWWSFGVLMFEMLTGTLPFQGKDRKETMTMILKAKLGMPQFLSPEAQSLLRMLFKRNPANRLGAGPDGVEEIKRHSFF
smiles,measurement,setting,value
"Clc1cc(NCC2CC2)c2ncc(-c3ccc4[nH]ncc4c3)n2n1 [compound 2, 6-Chloro-N-(cyclopropylmethyl)-3-(1H-indazol-5-yl)imidazo[1,2-b]pyridazin-8-amine]",remaining binding at 1 µM,TXK,85%
same,remaining binding at 1 µM,LKB1,52%
same,remaining binding at 1 µM,ERBB4,99%
same,remaining binding at 1 µM,NEK1,84%
same,remaining binding at 1 µM,[1],37%
same,remaining binding at 1 µM,NEK3,93%
O=C(CN1CCOCC1)N[C@H]1CC[C@H](Nc2cc(Cl)nn3c(-c4ccc5[nH]ncc5c4)cnc23)CC1 [compound 26],remaining binding at 1 µM,TXK,88%
same,remaining binding at 1 µM,LKB1,98%
same,remaining binding at 1 µM,ERBB4,100%
same,remaining binding at 1 µM,NEK1,92%
same,remaining binding at 1 µM,[1],19%
same,remaining binding at 1 µM,NEK3,88%
"CN1CCC(CNc2cc(Cl)nn3c(-c4cc5nc(Nc6ccccc6)[nH]c5cc4F)cnc23)CC1 [compound 31, 6-Chloro-3-(6-fluoro-2-(phenylamino)-1H-benzo[d]imidazol-5-yl)-N-((1-methylpiperidin-4-yl)methyl)imidazo[1,2-b]pyridazin-8-amine]",remaining binding at 1 µM,TXK,93%
same,remaining binding at 1 µM,LKB1,77%
same,remaining binding at 1 µM,ERBB4,100%
same,remaining binding at 1 µM,NEK1,96%
same,remaining binding at 1 µM,[1],100%
same,remaining binding at 1 µM,NEK3,100%
